The numbers were not newly measured in patent publication US7972386B2, “Bleaching of substrates” (Conopco, Inc., priority 2005, dated 2011), which cites them from elsewhere.

Each structure is given as a SMILES string.

For this data set the following is noted: at 20° C.

As for `CN1CCN(C)CCN(C)CC1.CN1CCN(C)CCN(C)CC1.F[P-](F)(F)(F)(F)F.F[P-](F)(F)(F)(F)F.O.[Mn+4].[Mn+4].[O-2].[O-2].[O-2]` [[Mn2O3(Me3-TACN)2](PF6)2•H2O, [Mn2O3(Me3-TACN)2] (PF6)2.H2O], the water solubility is 10.8 g per litre.
